Results as given in patent publication US20120100568A1, “SERUM-FREE MEDIUM FOR INDUCING PLURIPOTENT STEM CELLS QUICKLY WITH HIGH EFFICIENCY AND METHOD USING THEREOF” (GUANGZHOU INSTITUTES OF BIOMEDICINE AND HEALTH, CHINESE …, priority 2009, published 2012).

Columns and labels:
MEF cells [1] = assay: Screening compounds in the iPS process in iPS-SF1 medium (relative GFP efficiency by FACS); format: cell-based, mouse; settings: iPS-SF1, four factors, day 7; for effect on the efficiency of iPS reprogramming (relative GFP efficiency): PD0325901 1 μM, CHIR99021 3 μM, SU5402 2 μM; for enhancement of the efficiency of iPS reprogramming (relative GFP efficiency): TSA 20 nM, VPA 1 mM
Method: The main method for quantifying reprogramming efficiency is FACS analysis for Oct4-GFP positive cells. Based on the results of the timing process, the infected MEF cells were digested with trypsin at days 7 and 9 after infection and then analyzed through FACSCalibur. GFP positive cells received the gates of control signals from PE pathway, and 15,000 events were recorded as a minimum. Cells infected with pMXs-FLAG were used as negative control. In order to verify the efficiency as analyzed by FACS, GFP positive colonies were counted directly under a fluorescence microscope at day 14 after infection.
20,000 MEF cells were plated in each well of a twelve-well plate. The medium was iPS-SF1. Then, the cells were infected with viruses as described above in order to be transfected with the four factors. The compounds as shown in FIG. 6 were added into the medium at the following concentrations respectively: PD0325901 (1 μM), CHIR99021 (3 μM), SU5402 (2 μM, EMDbiosciences), Y-27632 (10 μM), vitamin E (25 μM, Sigma), vitamin A (1 μM, Sigma), A83-01 (0.5 μM, EMD), SB203580 (2 μM), Dorspmorphin (3 μM, Sigma), PFF-α (10 μM), TSA (20 nM, Sigma), VPA (1 mM, EMD), JAK inhibitor (0.3 μM, EMD), 5aza-DC (1 μM, Sigma), BIX01294 (1 μM), Bayk8644 (2 μM, EMD).
At day 7 after infection, cells were collected for FACS analysis as described above, and the relative GFP efficiency was measured. […] However, under conditions using the medium of the present invention, the compounds that had been previously reported as favorable to self-renewal of mouse embryonic stem cells, such as PD0325901, CHIR99021, and SU5402 reduced the efficiency of iPS reprogramming.

MEF cells [2] = assay: Effects of medium components, growth factors and serum on iPS reprogramming efficiency (Oct4-GFP FACS); format: cell-based, mouse; settings: for effect on the induction of the iPS reprogramming process: added to iPS-SF1 without bFGF, four factors, Oct4-GFP at day 7
Method: The main method for quantifying reprogramming efficiency is FACS analysis for Oct4-GFP positive cells. Based on the results of the timing process, the infected MEF cells were digested with trypsin at days 7 and 9 after infection and then analyzed through FACSCalibur. GFP positive cells received the gates of control signals from PE pathway, and 15,000 events were recorded as a minimum. Cells infected with pMXs-FLAG were used as negative control. In order to verify the efficiency as analyzed by FACS, GFP positive colonies were counted directly under a fluorescence microscope at day 14 after infection. LIF, N2, and bFGF in iPS-SF1 medium as listed in Table 1 were deleted respectively, or N2 and bFGF were added into DMEM+10% KOSR (i.e., containing no growth factor but containing NEAA, L-Glutamine or other ingredients at the same time, called as bKSR hereinafter) medium at concentrations equivalent to that of iPS-SF1 respectively, in order to detect the effects of LIF, N2, bFGF on the iPS reprogramming efficiency of MEF cells transfected with the four factors. […] In order to verify whether other tyrosine kinases and estrogens can play a role in inducing reprogramming of iPS cells in the medium of the present invention, after MEF cells were infected with the four-factor viruses, the following media were used instead, wherein the blank control was iPS-SF1 without bFGF, the experimental group was the blank medium (i.e., iPS-SF1 without bFGF) supplemented with various receptor tyrosine kinases (including basic fibroblast growth factor bFGF, epidermal growth factor EGF, vascular endothelial growth factor VEGF, insulin-like growth factor 2 IGF2, and estradiol), and a serum medium (FBS) was used as the negative control of this experiment.

Compound	effect on the efficiency of iPS reprogramming (relative GFP efficiency) (MEF cells [1])	effect on the induction of the iPS reprogramming process (MEF cells [2])	also measured
Cc1c[nH]c(-c2cnc(NCCNc3ccc(C#N)cn3)nc2-c2ccc(Cl)cc2Cl)n1 [CHIR99021]	reduced		
O=C(NOC[C@H](O)CO)c1ccc(F)c(F)c1Nc1ccc(I)cc1F [PD0325901]	reduced		
Cc1c[nH]c(/C=C2\C(=O)Nc3ccccc32)c1CCC(=O)O [SU5402]	reduced		
CC(/C=C/C(=O)NO)=C\[C@@H](C)C(=O)c1ccc(N(C)C)cc1 [TSA]			enhancement of the efficiency of iPS reprogramming (relative GFP efficiency) (MEF cells [1]): 100%
CCCC(CCC)C(=O)O [VPA]			enhancement of the efficiency of iPS reprogramming (relative GFP efficiency) (MEF cells [1]): 100%
C[C@]12CC[C@@H]3c4ccc(O)cc4CC[C@H]3[C@@H]1CC[C@@H]2O [estrogen, estradiol]		comparable effects	
basic fibroblast growth factor [bFGF]			effects on iPS reprogramming efficiency (MEF cells [2]; component added to bKSR or deleted from iPS-SF1, four factors, day 7): even higher than those of LIF
epidermal growth factor (NSDSECPLSHDGYCLHDGVCMYIEALDKYACNCVVGYIGERCQYRDLKWWELR; Epidermal growth factor; UniProt P01133 971-1023, looked up) [EGF]		comparable effects	
insulin-like growth factor 2 [IGF2]		comparable effects	
vascular endothelial growth factor [VEGF]		comparable effects	
